Source: the supplement of paper PMC6965134
± gives the standard deviation of the averaged measurements.

Experiment: TIMS collisional cross section (CCS, N2) of the lipid ion; higher = larger ion cross section
Settings: ionization mode: positive, one isomer drawn

Row | Structure (SMILES) | TIMS collisional cross section (sample type: Liver) [Å²] | TIMS collisional cross section (sample type: plasma) [Å²] | TIMS collisional cross section (sample type: HeLa) [Å²]
1 | CCCCCCCCCCCCCCCCCC(=O)OC[C@@H](COC(=O)CCCCCCCCCCCCCC)OC(=O)CCCCCCCCCCCCCCC [TG 15:0_16:0_18:0] (ion (formula + adduct): [C52H100O6+NH4] 1+) | – | 317.33 ± 0.31 | –
2 | CCCCCCCCCCCCCCCCCCCCCC(=O)OC[C@@H](COC(=O)CCCCCCCCCCCCCC)OC(=O)CCCCCCCCCCCCCCC [TG 15:0_16:0_22:0] (ion (formula + adduct): [C56H108O6+NH4] 1+) | – | 328.3 | –
3 | CCCCCC/C=C\CCCCCCCC(=O)O[C@H](COC(=O)CCCCCCCCCCCCCC)COC(=O)CCCCCCCCCCCCCCCC [TG 15:0_16:1_17:0] (ion (formula + adduct): [C51H96O6+NH4] 1+) | 312.5 | – | –
4 | CCCCCCC/C=C\CCCCCCCC(=O)O[C@@H](COC(=O)CCCCCCC/C=C\CCCCCCCC)COC(=O)CCCCCCCCCCCCCC [TG 15:0_17:1_18:1] (ion (formula + adduct): [C53H98O6+NH4] 1+) | – | – | 315.9
5 | CCCCC/C=C\C/C=C\C/C=C\CCCCC(=O)OC[C@@H](COC(=O)CCCCCCCCCCCCCC)OC(=O)CCCCCCC/C=C\C/C=C\CCCCC [TG 15:0_18:2_18:3] (ion (formula + adduct): [C54H94O6+NH4] 1+) | 312.7 | 312.8 | –
6 | CCCCC/C=C\CCCCCCCC(=O)OC[C@H](COC(=O)CCCCCCCCCCCCCCC)OC(=O)CCCCCCCCCCCCCCC [TG 15:1_16:0_16:0] (ion (formula + adduct): [C50H94O6+NH4] 1+) | 309.7 | – | –

Second part, the compound after the results:

Row | TIMS collisional cross section (sample type: Liver) [Å²] | TIMS collisional cross section (sample type: plasma) [Å²] | TIMS collisional cross section (sample type: HeLa) [Å²] | Structure (SMILES)
7 | 311.4 | – | – | CCCCCCC/C=C\CCCCCCCC(=O)OC[C@@H](COC(=O)CCCCCCCCCCCCCC)OC(=O)CCCCCCCCCCCCCCC [TG 15:0_16:0_17:1] (ion (formula + adduct): [C51H96O6+NH4] 1+)
8 | – | 315.47 ± 0.058 | 315.2 | CCCCCCCC/C=C\CCCCCCCC(=O)OC[C@@H](COC(=O)CCCCCCCCCCCCCC)OC(=O)CCCCCCCCCCCCCCC [TG 15:0_16:0_18:1] (ion (formula + adduct): [C52H98O6+NH4] 1+)
9 | 312.6 | – | – | CCCCC/C=C\C/C=C\CCCCCCCC(=O)OC[C@@H](COC(=O)CCCCCCCCCCCCCC)OC(=O)CCCCCCCCCCCCCCC [TG 15:0_16:0_18:2] (ion (formula + adduct): [C52H96O6+NH4] 1+)
10 | – | 312.8 ± 0.14 | 312.9 | CCCCCC/C=C\CCCCCCCC(=O)O[C@@H](COC(=O)CCCCCCC/C=C\CCCCCCCC)COC(=O)CCCCCCCCCCCCCC [TG 15:0_16:1_18:1] (ion (formula + adduct): [C52H96O6+NH4] 1+)
11 | 310.7 ± 0.99 | 310.4 | – | CCCCC/C=C\C/C=C\CCCCCCCC(=O)OC[C@@H](COC(=O)CCCCCCCCCCCCCC)OC(=O)CCCCCCC/C=C\CCCCCC [TG 15:0_16:1_18:2] (ion (formula + adduct): [C52H94O6+NH4] 1+)
12 | – | 316.6 | – | CCCCC/C=C\C/C=C\CCCCCCCC(=O)OC[C@@H](COC(=O)CCCCCCCCCCCCCC)OC(=O)CCCCCCC/C=C\CCCCCCCC [TG 15:0_18:1_18:2] (ion (formula + adduct): [C54H98O6+NH4] 1+)
13 | 307.4 | 307.1 | – | CCCCC/C=C\CCCCCCCC(=O)OC[C@H](COC(=O)CCCCCCC/C=C\CCCCCC)OC(=O)CCCCCCCCCCCCCCC [TG 15:1_16:0_16:1] (ion (formula + adduct): [C50H92O6+NH4] 1+)
14 | – | 311 | – | CCCCC/C=C\C/C=C\CCCCCCCC(=O)OC[C@@H](COC(=O)CCCCCCC/C=C\CCCCC)OC(=O)CCCCCCCCCCCCCCC [TG 15:1_16:0_18:2] (ion (formula + adduct): [C52H94O6+NH4] 1+)
